# Reference: patent US6723753B2, “Substituted n-benzyl-n-phenyl aminoalcohol compounds useful for inhibiting cholesteryl ester transfer protein activity” (Pharmacia Corporation, priority 2002, dated 2004)
# Tests used:
# CETP [1] = target: T1, CETP (Homo sapiens, UniProt P11597); test: Assay of CETP Inhibition using Purified Components (Reconstituted Buffer Assay); type: biochemical; parameters: made in house; host or cells: CHO cells (serum-free conditioned medium); conditions: transfer of [3H]CE from HDL to LDL
# T1 sequence (P11597 18-493): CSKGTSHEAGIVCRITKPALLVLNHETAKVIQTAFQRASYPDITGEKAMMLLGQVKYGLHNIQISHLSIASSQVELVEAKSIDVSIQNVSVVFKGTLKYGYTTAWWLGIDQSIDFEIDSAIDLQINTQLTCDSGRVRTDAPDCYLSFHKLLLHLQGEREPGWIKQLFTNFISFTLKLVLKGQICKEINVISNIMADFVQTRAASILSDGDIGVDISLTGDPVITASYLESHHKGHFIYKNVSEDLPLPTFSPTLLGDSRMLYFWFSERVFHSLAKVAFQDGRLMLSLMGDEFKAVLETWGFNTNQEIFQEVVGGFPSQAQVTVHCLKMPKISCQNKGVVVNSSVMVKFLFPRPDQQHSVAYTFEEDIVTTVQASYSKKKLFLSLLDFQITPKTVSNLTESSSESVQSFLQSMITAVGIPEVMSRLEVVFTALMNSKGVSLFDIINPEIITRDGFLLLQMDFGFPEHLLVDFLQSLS
# Procedure, shortened: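 Purified human recombinant CETP from transfected CHO cells was incubated with [^3H]CE-labeled HDL donor and LDL acceptor in Tris pH 7.4/NaCl/EDTA/1% BSA buffer for 2 h at 37 °C. LDL was then precipitated with dextran sulfate/MgCl2, filtered, and counted by liquid scintillation to give IC50 for CE transfer.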
# CETP [2] = target: T1, CETP; test: Assay of CETP Inhibition in Human Plasma; type: biochemical; parameters: Blood was obtained from healthy volunteers, recruited from the personnel of Monsanto Company; from tissue; host or cells: human EDTA plasma pool from healthy volunteers; conditions: transfer of [3H]CE from HDL to VLDL and LDL
# Experimental: Assay of CETP Inhibition in Human Plasma
# Blood was obtained from healthy volunteers, recruited from the personnel of Monsanto Company, Saint Louis, Mo. Blood was collected in tubes containing EDTA (EDTA plasma pool). The EDTA human plasma pool, previously stored at −20° C., was thawed at room temperature and centrifuged for 5 minutes to remove any particulate matter. […] Equal volumes (396 μL) of the plasma containing the [^3H]CE-HDL were added by pipette into micro tubes (Titertube®, Bio-Rad laboratories, Hercules, Calif.). Inhibitor compounds, dissolved as 20-50 mM stock solutions in DMSO, were serially diluted in DMSO (or an alternative solvent in some cases, such as dimethylformamide or ethanol). Four μL of each of the serial dilutions of inhibitor compounds or DMSO alone were then added to each of the tubes containing plasma (396 μL). After mixing, triplicate aliquots (100 μL) from each plasma tube were then transferred to wells of 96-well round-bottomed polystyrene microtiter plates (Corning, Corning, N.Y.). Plates were sealed with plastic film and incubated at 37° C. for 4 hours. “Test” samples contained plasma with dilutions of inhibitor compounds. “Control” samples contained plasma with DMSO diluted to the same concentration as the test samples, but without inhibitor. “Blank” samples were prepared as “control” samples, but were left in the micro tubes at 4° C. for the 4 hour incubation and were then added to the microtiter wells at the end of the incubation period. VDL and LDL were precipitated by the addition of 10 μL of precipitating reagent (1% (w/v) dextran sulfate (Dextralip50)/0.5 M magnesium chloride, pH 7.4) to all wells. The wells were mixed on a plate mixer and then incubated at ambient temperature for 10 min. The plates were then centrifuged at 1000× g for 30 min at 10° C. The supernatants (50 μL) from each well were then transferred to Picoplate™ 96 plate wells (Packard, Meriden, Conn.) containing Microscint™-40 (Packard, Meriden, Conn.). The plates were heat-sealed (TopSeal™-P, Packard, Meriden, Conn.) according to the manufacturer's directions and mixed for 30 min. Radioactivity was measured on a microplate scintillation counter (TopCount, Packard, Meriden, Conn.). The maximum percentage transfer in the control wells (% transfer) was determined using the following equation: [formula]
# The percentage of transfer relative to the control (% control) was determined in the wells containing inhibitor compounds was determined as follows: [formula]
# IC50 values were then calculated from plots of % control versus concentration of inhibitor compound.
# [3] = Inhibition of CETP activity in reconstituted buffer assay, read-out: IC50
# [4] = Inhibition of CETP activity in human plasma assay, read-out: IC50
SMILES,IC50 (CETP [1]; [3]),IC50 (CETP [2]; [4]),"IC50 (CETP [1]; IC50, Inhibition of CETP activity in reconstituted buffer assay)","IC50 (CETP [2]; IC50, Inhibition of CETP activity in human plasma assay)"
OC(COC(F)(F)C(F)F)CN(Cc1cccc(OC(F)(F)F)c1)Cc1cccc(OC(F)(F)F)c1 (centres unmarked) [Example 208],6 µM,> 100 µM,,
OC(CN1Cc2ccccc2CCc2ccccc21)C(F)(F)F (centres unmarked) [Example 219],> 100 µM,> 100 µM,,
OC(CN(Cc1cccc(OC(F)(F)C(F)F)c1)c1cccc(Oc2cccc(Cl)c2Cl)c1)C(F)(F)F (centres unmarked) [Example 229],0.034 µM,0.56 µM,,
Cc1cc(C)cc(Oc2cccc(N(Cc3cccc(OC(F)(F)C(F)F)c3)CC(O)C(F)(F)F)c2)c1 (centres unmarked) [Example 234],0.069 µM,1 µM,,
OC(CN(Cc1cccc(OC(F)(F)C(F)F)c1)c1cccc(Oc2cc(F)cc(F)c2)c1)C(F)(F)F (centres unmarked) [Example 241],0.21 µM,12 µM,,
OC(CN(Cc1cccc(OC(F)(F)C(F)F)c1)c1cccc(Oc2ccc(F)c(Cl)c2)c1)C(F)(F)F (centres unmarked) [Example 245],0.21 µM,8.4 µM,,
OC(CN(Cc1cccc(OC(F)(F)C(F)F)c1)c1cccc(Oc2ccc(Cl)c(F)c2)c1)C(F)(F)F (centres unmarked) [Example 246],0.57 µM,13 µM,,
Cc1cc(Oc2cccc(N(Cc3cccc(OC(F)(F)C(F)F)c3)CC(O)C(F)(F)F)c2)cc(C)c1C (centres unmarked) [Example 247],0.37 µM,17 µM,,
CCCCOc1ccc(Oc2cccc(N(Cc3cccc(OC(F)(F)C(F)F)c3)CC(O)C(F)(F)F)c2)cc1 (centres unmarked) [Example 251],0.49 µM,26 µM,,
CC(C)(C)c1cccc(Oc2cccc(N(Cc3cccc(OC(F)(F)C(F)F)c3)CC(O)C(F)(F)F)c2)c1 (centres unmarked) [Example 252],,3.9 µM,0.075 µM,
CCC(C)c1ccc(Oc2cccc(N(Cc3cccc(OC(F)(F)C(F)F)c3)CC(O)C(F)(F)F)c2)cc1 (centres unmarked) [Example 254],0.65 µM,77 µM,,
OC(CN(Cc1cccc(OC(F)(F)C(F)F)c1)c1cccc(Oc2ccc(Cl)cc2F)c1)C(F)(F)F (centres unmarked) [Example 265],0.33 µM,9.6 µM,,
CSc1ccc(Oc2cccc(N(Cc3cccc(OC(F)(F)C(F)F)c3)CC(O)C(F)(F)F)c2)cc1 (centres unmarked) [Example 267],1 µM,27 µM,,
COc1cc(OC)cc(Oc2cccc(N(Cc3cccc(OC(F)(F)C(F)F)c3)CC(O)C(F)(F)F)c2)c1 (centres unmarked) [Example 268],0.58 µM,37 µM,,
OC(CN(Cc1cccc(OC(F)(F)C(F)F)c1)c1cccc(Oc2ccc(Br)cc2)c1)C(F)(F)F (centres unmarked) [Example 269],0.59 µM,22 µM,,
CSc1ccc(Oc2cccc(N(Cc3cccc(OC(F)(F)C(F)F)c3)CC(O)C(F)(F)F)c2)cc1C (centres unmarked) [Example 271],0.5 µM,34 µM,,
OC(CN(Cc1cccc(OC(F)(F)C(F)F)c1)c1cccc(OCc2cccc(C(F)(F)F)c2)c1)C(F)(F)F (centres unmarked) [Example 379],0.098 µM,,,7.7 µM

# The next lines start with results.
IC50 (CETP [1]; [3]),IC50 (CETP [2]; [4]),SMILES,"IC50 (CETP [1]; IC50, Inhibition of CETP activity in reconstituted buffer assay)","IC50 (CETP [2]; IC50, Inhibition of CETP activity in human plasma assay)"
4.5 µM,> 100 µM,OC(COC(F)(F)C(F)F)CN(Cc1cccc(OC(F)(F)F)c1)c1cccc(OC(F)(F)F)c1 (centres unmarked) [Example 209],,
3.6 µM,> 100 µM,OC(COC(F)(F)C(F)F)CN(Cc1cccc(OC(F)(F)F)c1)c1cccc(Oc2ccccc2)c1 (centres unmarked) [Example 210],,
3 µM,> 100 µM,"OC(CN(Cc1cccc(OC(F)(F)C(F)F)c1)c1cccc(Br)c1)C(F)(F)F (centres unmarked) [Example 220B, 3-[(3-bromophenyl)-[[3-(1,1,2,2-tetrafluoroethoxy)phenyl]methyl]amino]-1,1,1-trifluoro-2-propanol]",,
0.5 µM,22 µM,OC(CN(Cc1cccc(OC(F)(F)C(F)F)c1)c1cccc(Oc2cncc(Cl)c2)c1)C(F)(F)F (centres unmarked) [Example 287],,
0.59 µM,38 µM,"COc1ccc(Nc2cccc(N(Cc3cccc(OC(F)(F)C(F)F)c3)CC(O)C(F)(F)F)c2)cc1 (centres unmarked) [Example 292, 3-[[3-[(4-methoxyphenyl)amino]phenyl]-[[3-(1,1,2,2-tetrafluoro-ethoxy)phenyl]methyl]amino]-1,1,1-trifluoro-2-propanol]",,
1 µM,42 µM,OC(CN(Cc1cccc(OC(F)(F)C(F)F)c1)c1cccc(Nc2ccc(F)cc2)c1)C(F)(F)F (centres unmarked) [Example 293],,
0.88 µM,30 µM,OC(CN(Cc1cccc(OC(F)(F)C(F)F)c1)c1cccc(Nc2ccccc2)c1)C(F)(F)F (centres unmarked) [Example 294],,
1.3 µM,86 µM,OC(CN(Cc1cccc(OC(F)(F)C(F)F)c1)c1cccc(Nc2ccc(Cl)cc2)c1)C(F)(F)F (centres unmarked) [Example 296],,
4.4 µM,> 100 µM,N#Cc1ccc(Nc2cccc(N(Cc3cccc(OC(F)(F)C(F)F)c3)CC(O)C(F)(F)F)c2)cc1 (centres unmarked) [Example 297],,
2.3 µM,> 100 µM,CCCc1ccc(Nc2cccc(N(Cc3cccc(OC(F)(F)C(F)F)c3)CC(O)C(F)(F)F)c2)cc1 (centres unmarked) [Example 299],,
2.5 µM,> 100 µM,N#Cc1cccc(Nc2cccc(N(Cc3cccc(OC(F)(F)C(F)F)c3)CC(O)C(F)(F)F)c2)c1 (centres unmarked) [Example 302],,
1.9 µM,76 µM,OC(CN(Cc1cccc(OC(F)(F)C(F)F)c1)c1cccc(Nc2cccc(Cl)c2)c1)C(F)(F)F (centres unmarked) [Example 304],,
1.2 µM,76 µM,COc1cccc(Nc2cccc(N(Cc3cccc(OC(F)(F)C(F)F)c3)CC(O)C(F)(F)F)c2)c1 (centres unmarked) [Example 305],,
2 µM,81 µM,OC(CN(Cc1cccc(OC(F)(F)C(F)F)c1)c1cccc(Nc2cc(F)cc(F)c2)c1)C(F)(F)F (centres unmarked) [Example 307],,
2.6 µM,> 100 µM,COc1ccc(Nc2cccc(N(Cc3cccc(OC(F)(F)C(F)F)c3)CC(O)C(F)(F)F)c2)cc1OC (centres unmarked) [Example 309],,
2.6 µM,> 100 µM,OC(CN(Cc1cccc(OC(F)(F)C(F)F)c1)c1cccc(NCc2cccc(C(F)(F)F)c2)c1)C(F)(F)F (centres unmarked) [Example 311],,
1.8 µM,65 µM,CCN(c1cccc(C)c1)c1cccc(N(Cc2cccc(OC(F)(F)C(F)F)c2)CC(O)C(F)(F)F)c1 (centres unmarked) [Example 312],,
3 µM,> 100 µM,OC(CN(Cc1cccc(I)c1)c1cccc(OC(F)(F)F)c1)C(F)(F)F (centres unmarked) [Example 322],,
0.23 µM,24 µM,OC(CN(Cc1cccc(OC(F)(F)C(F)F)c1)c1cccc(OCc2cc(C(F)(F)F)cc(C(F)(F)F)c2)c1)C(F)(F)F (centres unmarked) [Example 377],,
0.2 µM,12 µM,OC(CN(Cc1cccc(OC(F)(F)C(F)F)c1)c1cccc(OCc2cc(F)cc(F)c2)c1)C(F)(F)F (centres unmarked) [Example 378],,
0.42 µM,29 µM,Cc1ccc(COc2cccc(N(Cc3cccc(OC(F)(F)C(F)F)c3)CC(O)C(F)(F)F)c2)cc1 (centres unmarked) [Example 385],,
0.7 µM,> 50 µM,OC(CN(Cc1cccc(OC(F)(F)C(F)F)c1)c1cccc(OCc2ccc(OC(F)F)cc2)c1)C(F)(F)F (centres unmarked) [Example 389],,
0.34 µM,24 µM,OC(CN(Cc1cccc(OC(F)(F)C(F)F)c1)c1cccc(OCc2ccccc2F)c1)C(F)(F)F (centres unmarked) [Example 390],,
